# Laboratory results as given in ChEMBL document CHEMBL5579854, “Targeting Relevant HDACs to Support the Survival of Cone Photoreceptors in Inherited Retinal Diseases: Identification of a Potent Pharmacological Tool with In Vitro and In Vivo Efficacy” (J Med Chem, 2024).
# Active and inactive are the calls of the source. The rule behind the calls is not given here.
# Tests used:
# [1] = target: T1, Protein deacetylase HDAC6 (Homo sapiens, UniProt Q9UBN7); test: Inhibition of C-terminal FLAG-tagged full-length recombinant human HDAC6 (1 to 1215 residues) expressed in Sf9 insect cells using a fluorogenic substrate preincubated for 30 mins followed by substrate addition measured after 30 mins by fluorescence based assay
# T1 sequence (Q9UBN7 whole entry): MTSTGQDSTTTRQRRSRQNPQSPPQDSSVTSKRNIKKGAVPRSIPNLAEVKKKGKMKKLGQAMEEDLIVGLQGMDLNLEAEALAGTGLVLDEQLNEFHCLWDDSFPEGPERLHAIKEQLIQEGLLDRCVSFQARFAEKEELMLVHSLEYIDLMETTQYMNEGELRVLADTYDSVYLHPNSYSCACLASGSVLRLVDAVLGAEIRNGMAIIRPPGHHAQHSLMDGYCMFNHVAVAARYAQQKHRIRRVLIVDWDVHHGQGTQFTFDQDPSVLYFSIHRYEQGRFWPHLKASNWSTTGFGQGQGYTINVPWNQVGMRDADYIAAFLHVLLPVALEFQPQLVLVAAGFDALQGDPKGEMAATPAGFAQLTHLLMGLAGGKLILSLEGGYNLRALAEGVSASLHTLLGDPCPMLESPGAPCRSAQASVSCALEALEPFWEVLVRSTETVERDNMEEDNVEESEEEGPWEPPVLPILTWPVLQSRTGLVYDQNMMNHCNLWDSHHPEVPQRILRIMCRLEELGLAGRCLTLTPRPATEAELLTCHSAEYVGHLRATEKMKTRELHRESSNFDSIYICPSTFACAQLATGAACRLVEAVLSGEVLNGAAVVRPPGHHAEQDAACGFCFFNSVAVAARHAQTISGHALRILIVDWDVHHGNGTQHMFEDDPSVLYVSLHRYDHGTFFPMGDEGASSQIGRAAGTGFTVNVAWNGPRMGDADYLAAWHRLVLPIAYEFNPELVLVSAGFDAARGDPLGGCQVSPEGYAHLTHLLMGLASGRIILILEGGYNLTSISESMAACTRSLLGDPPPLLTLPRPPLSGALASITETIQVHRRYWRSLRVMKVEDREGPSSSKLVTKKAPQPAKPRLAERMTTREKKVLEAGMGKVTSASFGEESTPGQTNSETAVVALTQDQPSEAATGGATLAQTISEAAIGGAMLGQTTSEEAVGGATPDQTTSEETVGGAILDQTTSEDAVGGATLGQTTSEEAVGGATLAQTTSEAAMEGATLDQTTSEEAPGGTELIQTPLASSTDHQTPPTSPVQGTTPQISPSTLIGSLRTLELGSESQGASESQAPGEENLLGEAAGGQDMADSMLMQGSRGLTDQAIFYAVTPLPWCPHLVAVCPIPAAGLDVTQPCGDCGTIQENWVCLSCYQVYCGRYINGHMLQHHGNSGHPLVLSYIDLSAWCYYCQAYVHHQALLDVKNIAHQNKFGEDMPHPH
# Histone deacetylase 1 [2] = target: T2, Histone deacetylase 1 (Homo sapiens, UniProt Q13547); test: Inhibition of C-terminal 6xHis-tagged full-length recombinant human HDAC1 (1 to 482 residues) expressed in Sf9 insect cells using a fluorogenic substrate preincubated for 30 mins followed by substrate addition measured after 30 mins by fluorescence based assay
# T2 sequence (Q13547 whole entry, the tested form may be a part): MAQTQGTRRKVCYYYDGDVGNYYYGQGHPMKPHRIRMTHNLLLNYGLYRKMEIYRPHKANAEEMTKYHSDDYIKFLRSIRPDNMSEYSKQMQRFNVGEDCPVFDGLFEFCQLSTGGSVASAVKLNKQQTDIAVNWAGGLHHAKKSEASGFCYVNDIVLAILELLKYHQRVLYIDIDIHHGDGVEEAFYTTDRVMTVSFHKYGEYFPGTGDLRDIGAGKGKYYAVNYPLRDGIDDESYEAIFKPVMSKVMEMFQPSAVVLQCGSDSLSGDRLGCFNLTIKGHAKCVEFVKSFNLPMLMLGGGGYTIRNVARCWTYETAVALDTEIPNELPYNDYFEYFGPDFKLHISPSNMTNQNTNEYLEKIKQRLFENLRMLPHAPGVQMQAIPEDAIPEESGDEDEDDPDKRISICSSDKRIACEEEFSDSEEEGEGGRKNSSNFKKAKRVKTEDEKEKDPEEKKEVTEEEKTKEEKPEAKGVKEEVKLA
# Histone deacetylase 1 [3] = target: T2, Histone deacetylase 1; test: Inhibition of C-terminal 6xHis-tagged full-length recombinant human HDAC1 (1 to 482 residues) expressed in Sf9 insect cells using a fluorogenic substrate preincubated for 30 mins followed by substrate addition measured after 30 mins by fluorescence based assay relative to control; settings: time 60.0 min
# [4] = Stability of compound at pH 7.4 measured after 24 hrs; type: physicochemical; settings: buffer, read-out: Stability
# [5] = Lipophilicity, logP of compound; type: physicochemical; settings: octanol/water
# [6] = Solubility of compound; type: physicochemical
# [7] = target: T3, Histone deacetylase 8 (Homo sapiens) (UniProt Q9BY41); test: Inhibition of C-terminal His-tagged full-length recombinant human HDAC8 (1 to 377 residues) expressed in Sf9 insect cells using a fluorogenic substrate preincubated for 30 mins followed by substrate addition measured after 30 mins by fluorescence based assay relative to control; settings: time 60.0 min
# T3 sequence (whole entry): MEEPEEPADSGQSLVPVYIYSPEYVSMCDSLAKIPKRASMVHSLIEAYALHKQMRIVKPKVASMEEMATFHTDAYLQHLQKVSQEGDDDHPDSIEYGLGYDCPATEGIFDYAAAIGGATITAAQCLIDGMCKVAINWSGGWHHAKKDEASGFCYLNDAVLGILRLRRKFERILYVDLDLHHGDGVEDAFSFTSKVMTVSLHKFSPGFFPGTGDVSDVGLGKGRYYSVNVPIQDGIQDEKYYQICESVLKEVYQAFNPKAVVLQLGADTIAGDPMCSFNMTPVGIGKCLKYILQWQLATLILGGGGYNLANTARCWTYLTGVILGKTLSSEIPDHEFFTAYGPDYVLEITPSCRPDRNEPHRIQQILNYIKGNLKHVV
# Histone deacetylase 8 = target: T4, Histone deacetylase 8 (Homo sapiens, UniProt Q9BY41); test: Inhibition of C-terminal His-tagged full-length recombinant human HDAC8 (1 to 377 residues) expressed in Sf9 insect cells using a fluorogenic substrate preincubated for 30 mins followed by substrate addition measured after 30 mins by fluorescence based assay
# T4 sequence (Q9BY41 whole entry): T3 sequence (whole entry)
# 661W [8] = test: Cytoprotective effect against H2O2-induced oxidative stress in mouse 661W cells assessed as increase in acetylated alpha-tubulin level at 10 uM incubated for 24 hrs followed by H2O2 treatment for 3 hrs by immunofluorescence analysis; type: functional, cell-based; settings: time 27.0 hrs
# 661W [9] = test: Effect on acetylated alpha-tubulin level in H2O2-induced oxidative stress in mouse 661W cells at 10 uM incubated for 24 hrs followed by H2O2 treatment for 3 hrs by Western blot analysis; type: functional, cell-based; settings: time 27.0 hrs
# 661W [10] = test: Effect on acetylated histone H3 level in H2O2-induced oxidative stress in mouse 661W cells at 10 uM incubated for 24 hrs followed by H2O2 treatment for 3 hrs by Western blot analysis; type: functional, cell-based; settings: time 27.0 hrs
# Histone deacetylase 5 [11] = target: T5, Histone deacetylase 5 (Homo sapiens, UniProt Q9UQL6); test: (§1) Inhibition of C-terminal His-tagged recombinant human HDAC5 catalytic domain (656 to 1122 residues) expressed in baculovirus infected Sf9 insect cells using a fluorogenic substrate preincubated for 30 mins followed by substrate addition measured after 30 mins by fluorescence based assay
# T5 sequence (Q9UQL6 whole entry, the tested form may be a part): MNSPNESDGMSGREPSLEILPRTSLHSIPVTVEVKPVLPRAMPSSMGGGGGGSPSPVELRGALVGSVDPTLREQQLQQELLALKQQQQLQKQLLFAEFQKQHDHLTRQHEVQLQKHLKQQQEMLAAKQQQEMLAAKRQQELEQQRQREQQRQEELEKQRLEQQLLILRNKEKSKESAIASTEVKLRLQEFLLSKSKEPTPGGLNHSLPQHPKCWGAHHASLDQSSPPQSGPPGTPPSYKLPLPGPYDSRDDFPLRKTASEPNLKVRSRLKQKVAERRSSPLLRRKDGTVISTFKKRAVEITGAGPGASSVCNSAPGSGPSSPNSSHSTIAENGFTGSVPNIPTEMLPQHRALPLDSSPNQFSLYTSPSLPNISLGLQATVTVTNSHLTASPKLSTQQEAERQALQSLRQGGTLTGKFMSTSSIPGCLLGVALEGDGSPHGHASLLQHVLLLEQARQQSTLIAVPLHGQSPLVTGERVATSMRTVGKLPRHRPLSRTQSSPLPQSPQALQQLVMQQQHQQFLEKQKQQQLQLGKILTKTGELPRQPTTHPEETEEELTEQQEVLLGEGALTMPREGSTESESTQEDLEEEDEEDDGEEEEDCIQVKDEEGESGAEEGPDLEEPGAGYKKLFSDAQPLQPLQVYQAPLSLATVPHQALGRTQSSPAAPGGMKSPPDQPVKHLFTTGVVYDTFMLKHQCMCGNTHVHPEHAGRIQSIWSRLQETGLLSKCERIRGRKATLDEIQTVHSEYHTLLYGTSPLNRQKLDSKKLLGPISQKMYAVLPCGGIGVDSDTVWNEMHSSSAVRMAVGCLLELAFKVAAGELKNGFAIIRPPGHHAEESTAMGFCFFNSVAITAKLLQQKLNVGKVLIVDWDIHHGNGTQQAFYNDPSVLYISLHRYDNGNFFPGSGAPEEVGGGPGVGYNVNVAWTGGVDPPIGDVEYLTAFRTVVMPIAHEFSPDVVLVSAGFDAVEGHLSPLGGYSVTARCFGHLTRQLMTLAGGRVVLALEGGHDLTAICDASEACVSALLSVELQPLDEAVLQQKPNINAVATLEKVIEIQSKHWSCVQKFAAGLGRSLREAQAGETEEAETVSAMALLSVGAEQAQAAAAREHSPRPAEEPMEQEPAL
# Histone deacetylase 5 [12] = target: T5, Histone deacetylase 5; test: as §1, with “assay relative to control” for “assay”; settings: time 60.0 min
SMILES,remaining at 24 h [4] [%],logP [5],solubility [6] [µM],also measured
O=C(NO)c1ccc(CNC(=S)N2CCc3c(c4ccccc4n3Cc3ccccc3)C2)cc1,,,,IC50 [1]: > 10 µM
Cn1c2c(c3ccccc31)CN(C(=O)NCc1ccc(C(=O)NO)cc1)CC2,,,,IC50 (Histone deacetylase 1 [2]): > 10 µM; inhibition (Histone deacetylase 1 [3]): 41%
Cn1c2c(c3ccccc31)CN(Cc1ccc(C(=O)NO)cc1)CC2,94,1.97,200,IC50 (Histone deacetylase 1 [2]): > 10 µM; inhibition (Histone deacetylase 1 [3]): 43%
CCN(CC)Cc1ccc(Cn2c3c(c4ccccc42)CN(C(=O)NCc2ccc(C(=O)NO)cc2)CC3)cc1,92,4.08,295,
Cn1c2c(c3ccccc31)CN(C(=O)OCc1ccc(C(=O)NO)cc1)CC2,90,3.2,227,inhibition [7]: 38%; IC50 (Histone deacetylase 8): > 10 µM
CC(C)(C)OC(=O)N1CCC2(CC1)CN(Cc1ccc(C(=O)NO)cc1)c1ccccc12,74,2.5,223,
CN1CCc2c(c3ccccc3n2Cc2ccc(C(=O)NO)cc2)C1 [TUBASTATIN A],75,2.02,231,Activity (661W [8]): Active; Activity (661W [9]): inactive; Activity (661W [10]): inactive
CC(/C=C/C(=O)NO)=C\[C@@H](C)C(=O)c1ccc(N(C)C)cc1 [TRICHOSTATIN],,2.57,,
CC1(C)c2ccccc2N(Cc2ccc(C(=O)NO)cc2)C1c1cccnc1 (stereo not drawn),97,2.04,285,IC50 (Histone deacetylase 5 [11]): > 10 µM; IC50 (Histone deacetylase 1 [2]): 5.42 µM; IC50 [1]: 0.0408 µM; IC50 (Histone deacetylase 8): 2.2 µM; inhibition (Histone deacetylase 5 [12]): 14%
O=C(NO)c1ccc(COC(=O)N2CCC3(CC2)CN(Cc2ccccc2)c2ccccc23)cc1,64,4.2,156,
O=C(NO)c1ccc(NC(=O)N2CCc3c(c4ccccc4n3Cc3ccccc3)C2)cc1,90,3.99,141,
CN1CC2(CCN(Cc3ccc(C(=O)NO)cc3)CC2)c2ccccc21,71,2.1,97,
